Tested on: not listed separately
Test: subacute oral toxicity in the rat
Type: in vivo
Conditions: 100 mg/kg/day for two weeks, 1% aqueous suspension in methyl cellulose
Source text: The subacute oral toxicity of Example 2V was studied in the rat.

SMILES | subacute oral toxicity
O=C(N[C@@H]1N=C(c2ccccc2)c2cccc3c2N(CC3)C1=O)c1cc2ccccc2cn1 [Example 2V, (3R)-Isocuinoline-3-carboxylic acid (4-oxo-1-phenyl-3,4,6,7-tetrahdro[1,4]diazerino[6,7,1-hi]indol-3-yl)amide] | showed no activity which could be linked with a toxic effect

Tested on: phosphodiesterase
Test: not given
Conditions: nonspecific inhibitor; cited from earlier work

SMILES | inhibition of several classes of phosphodiesterases
Cn1c(=O)c2[nH]cnc2n(C)c1=O [Theophylline] | inhibit several classes of enzymes

Target: PDE IV
Test: PDE IV inhibition (partially purified enzyme) compared with rolipram
Type: biochemical
Conditions: enzyme preparation obtained from guinea-pig trachea; same enzyme preparation for rolipram and product
Experimental: The capacity of the compounds of formula (I) of the invention to inhibit cyclic nucleotide phosphodiesterases is evaluated by measuring their IC50 (concentration of inhibitor required to inhibit enzymatic activity by 50%). In the case of PDEs IV, this value is compared with the IC50 of rolipram, a specific inhibitor of PDE IV, by the ratio of the IC50 of rolipram to the IC50 of the product to be tested, in relation to the same enzyme preparation.
The different classes of phosphodiesterases are obtained in partially purified form on a DEAE-cellulose column from guinea-pig trachea and dog aorta according to a method adapted from that of W. J. Thompson et al., 1979, Advances in Cyclic Nucleotide Research, Vol. 10: 69-92, ed. G. Brooker et al., Raven Press, New York, and of P. J. Silver et al., 1988, Eur. J. Pharmacol. 150: 85-94.
Subsequently, the measurement of the enzymatic activity of the different classes of PDE, and in particular of the PDEs IV, is carried out according to a method which is likewise adapted from that of W. J. Thompson, ibidem.
For the determination of the IC50 the enzymatic activity is measured in the presence of the inhibitor in a range of concentrations from 0.1 to 100 μM.
The following table illustrates the PDE IV-inhibitory activity in comparison with that of rolipram for an enzyme preparation obtained from guinea-pig trachea.

SMILES | IC50 rolipram / IC50 example (PDE IV-inhibitory effect compared with rolipram)
COc1cc2c3c(c1)C(c1ccccc1)=N[C@@H](NC(=O)c1ccc4ncccc4c1)C(=O)N3CC2 [Example 6E, (3R) -Quinoline-6-carboxylic acid (9-methoxy-4-oxo-1-phenyl-3,4,6,7-tetrahydro[1,4]diazepino[6,7,1-hi]indol-3-yl)amide] | 1.9
O=C(N[C@@H]1N=C(c2ccccc2)c2cccc3c2N(CC3)C1=O)c1ccc(F)cc1 [Example 2C, (3R)-4-Fluoro-N-(4-oxo-1-phenyl-3,4,6,7-tetrahydro[1,4]diazepino[6,7,1-hi]indol-3-yl) -benzamide] | 1.2
CC(=O)Nc1ccc(C(=O)N[C@@H]2N=C(c3ccccc3)c3cccc4c3N(CC4)C2=O)cc1 [Example 2O, (3R)-4-Acetamido-N-(4-oxo-1-phenyl-3,4,6,7-tetrahydro[1,4]diazepino[6,7,1-hi]indol-3-yl)-benzamide] | 1.9
COc1cc2c3c(c1)C(c1ccccc1)=N[C@@H](NC(=O)c1cc4ccccc4cn1)C(=O)N3CC2 [Example 6F, (3R)-Isoquinoline-3-carboxylic acid (9-methoxy-4-oxo-1-phenyl-3,4,6,7-tetrahydro[1,4]diazepino-[6,7,1-hi]indol-3-yl)amide] | 1.2
COc1cc(C(=O)N[C@@H]2N=C(c3ccccc3)c3cccc4c3N(CC4)C2=O)cc(OC)c1OC [Example 2M, (3R)-3,4,5-Trimethoxy-N-(4-oxo-1-phenyl-3,4,6,7-tetrahydro[1,4]diazepino[6,7,1-hi]indol-3-yl)-benzamide] | 1.3
O=C(N[C@@H]1N=C(c2ccccc2)c2cccc3c2N(CC3)C1=O)c1ccc2ncccc2c1 [Example 2T, (3R)-Quinoline-6-carboxylic acid (4-oxo-1-phenyl-3,4,6,7-tetrahydro[1,4]diaze-ino[6,7,1-hi]indol-3-yl)amide] | 2.0
O=C(N[C@@H]1N=C(c2ccccc2)c2cccc3c2N(CC3)C1=O)c1ccccn1 [Example 2P, (3R)-Pyridine-2-carboxylic acid (4-oxo-1-phenyl-3,4,6,7-tetrahydro[1,4]diazepino[6,7,1-hi]indol-3-yl)amide] | 1.5
Cc1cc2nnc(C(=O)N[C@@H]3N=C(c4ccccc4)c4cccc5c4N(CC5)C3=O)c(C)n2n1 [Example 2Y, (3R)-4,7-Dimethyl-pyrazolo[5,1-c][1,2,4]triazine-3-carboxylic acid (4-oxo-1-phenyl-3,4,6,7-tetrahydro[1,4]diazepino[6,7,1-hi]indol-3-yl)amide] | 1.4
COc1cc2c3c(c1)C(c1ccccc1)=N[C@@H](NC(=O)c1cnc4ccccc4c1)C(=O)N3CC2 [Example 6D, (3R)-Quinoline-3-carboxylic acid (9-methoxy-4-oxo-1-phenyl-3,4,6,7-tetrahydro[1,4]diazepino[6,7,1-hi]indol-3-yl)amide] | 1.9
COc1ccc(Cl)cc1C(=O)N[C@@H]1N=C(c2ccccc2)c2cccc3c2N(CC3)C1=O [Example 2N, (3R) -2-Methoxy-5-chloro-N-(4-oxo-1-phenyl-3,4,6,7-tetrahydro[1,4]diazepino[6,7,1-hi]indol-3-yl)-benzamide] | 2.5
O=C(N[C@@H]1N=C(c2ccccc2)c2cccc3c2N(CC3)C1=O)c1cccc(F)c1 [Example 2B, (3R)-3-Fluoro-N-(4-oxo-1-phenyl-3,4,6,7-tetrahydro[1,4]diazepino[6,7,1-hi]indol-3-yl)-benzamide] | 1.2
COc1cc2c3c(c1)C(c1ccccc1)=N[C@@H](NC(=O)c1ccncc1)C(=O)N3CC2 [Example 6C, (3R)-N-(9-methoxy-4-oxo-1-phenyl-3,4,6,7-tetrahydro[1,4]diaze-ino[6,7,1-hi]indol-3-yl)isonicotinamide] | 1.6
COc1cc2c3c(c1)C(c1ccccc1)=N[C@@H](NC(=O)c1nnc4cc(C)nn4c1C)C(=O)N3CC2 [Example 6G, (3R)-4.7-Dimethylpyrazolo[5,1-c[]1,2,4]-triazine-3-carboxylic acid (9-methoxy-4-oxo-1-phenyl-3,4,6,7-tetrahydro[1,4]diazepino[6,7,1-hi]indol-3-yl)-amide] | 2.2
O=C(N[C@@H]1N=C(c2ccccc2)c2cccc3c2N(CC3)C1=O)c1cnc2ccccc2c1 [Example 2S, (3R)-Quinoline-3-carboxylic acid (4-oxo-1-phenyl-3,4,6,7-tetrahydro[1,4]diazepino[6,7,1-hi]indol-3-yl)amide] | 3.3
COc1cc2c3c(c1)C(c1ccccc1)=N[C@@H](NC(=O)c1cccc(Cl)c1)C(=O)N3CC2 [Example 6A, (3R)-3-Chloro-N-(9-methoxy-4-oxo-1-phenyl-3,4,6,7-tetrahydro[1,4]diazepino[6,7,1-hi]indol-3-yl)benzamide] | 2.7
COc1cc2c3c(c1)C(c1ccccc1)=N[C@@H](NC(=O)c1ccc(Cl)cc1)C(=O)N3CC2 [Example 6B, (3R)-4-Chloro-N-(9-methoxv-4-oxo-1-phenyl-3,4,6,7-tetrahydro[1,4]diazepino[6,7,1-hi]indol-3-yl)benzamide] | 1.6
COc1cc2c3c(c1)C(c1ccccc1)=NC(NC(=O)c1cc4ccccc4cn1)C(=O)N3CC2 [Example 5, (3R,S)-Isoquinoline-3-carboxylic acid (9-methoxy-4-oxo-1-phenyl-3,4,6,7-tetrahydro[1,4]-diazepino(6,7,1-hilindol-3yl)amide] | 1.2
O=C(NC1N=C(c2ccccc2)c2cccc3c2N(CC3)C1=O)c1cn2ccccc2n1 (racemic) [Example 1B, (3R,S)-Imidazo[1,2-a]pyridine-2-carboxylic acid N-(4-oxo-1-phenyl-3,4,6,7-tetrahydro1,4]diazepino-[6,7,1-hi]indol-3-yl)amide] | 3.7

Tested on: not given
Test: not given
Conditions: in use; cited from earlier work

SMILES | undesirable effects
Cn1c(=O)c2[nH]cnc2n(C)c1=O [Theophylline] | nausea and headaches
COc1ccc(C2CNC(=O)C2)cc1OC1CCCC1 (stereo not drawn) [Rolipram] | nausea and vomiting

Same assay, conditions: methylxanthines such as theophylline; cited from earlier work

SMILES | therapeutic index
Cn1c(=O)c2[nH]cnc2n(C)c1=O [Theophylline] | low therapeutic index

Tested on: inflammatory cells
Test: not given
Conditions: in vitro, rodents; cited from earlier work

SMILES | inhibition of the activity of inflammatory cells
COc1ccc(C2CNC(=O)C2)cc1OC1CCCC1 (stereo not drawn) [Rolipram] | inhibits the activity of inflammatory cells in rodents
